Assay results reported in patent US5430062A, “Stilbene derivatives as anticancer agents” (priority 1993, dated 1995).
Where “and” joins values, the source holds several entries; their conditions need not be identical. Equal entries are not always repeated.

Test system: HL-60 (TB) leukemia
Assay: Cytotoxicity, HL-60(TB) leukemia
Settings: Hydrochloride

`COc1cc(CNc2ccc(C)cc2)cc(OC)c1OC.Cl` [110a, 4-Methyl-N-(3,4,5-trimethoxybenzyl)aniline Hydrochloride] was tested, and the “Log10 GI50, HL-60 (TB)” value was < -7.00 and -7.05.
